pEC50, pIC50: −log10 of the molar value. Where two headings read alike, the source gives them in different places. Some results are limits rather than exact numbers.

The values below come from patent publication US9714247B2, “Multiple kinase pathway inhibitors” (Mannkind Corporation, priority 2012, dated 2017).

In experiment [1] the test system is DoHH2. The experiment can be described thus: CellTiter-Glo proliferation/viability assay. Format: cell-based, human. (In ATP-based viability assays light output follows the ATP content of the culture.)
Experiment [2] concerns phosphorylation of SFKs in Ramos cells. The experiment in a line: SFK phosphorylation (Tyr 416) by flow cytometry. Conditions: Homo sapiens, 0.3 uM, flow cytometry, SFK phosphorylated at Tyr 416, read-out: pSRC % inhibition. Format: cell-based, human. In short, it runs like this:
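Ramos cells pretreated with compound 2 hrs in RPMI with 5% FBS, then stimulated 10 minutes with H2O2/anti-IgM. Phospho-Tyr 416 SFK detected by flow cytometry with an antibody that may cross-react across Src family members, plus fluorescent secondary antibody.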

Experiment [3] concerns the target T1, Lyn (Homo sapiens (Human), UniProt P07948). The settings on record: read-out: Lyn IC50.
The subject of experiment [4] is Ramos. The experiment can be described thus: CellTiter-Glo proliferation/viability assay. The format is cell-based, human.
Experiment [5] concerns RBL-2H3 cells. The experiment can be described thus: Degranulation (β-hexosaminidase release) colorimetric assay. The format is cell-based. The settings on record: Rattus norvegicus, RBL-2H3, IgE / DNP-BSA. The source says: Crosslinking of IgE receptors leads to induction of intracellular signal transduction pathways and degranulation of mast cells and basophils leading to the release of histamine, serotonin and cytokines that constitutes an allergic reaction. […] One of the factors secreted on induction of degranulation is β-hexosaminidase. A colorimetric assay using 4-nitrophenyl N-acetyl-3-D-glucosaminide (Sigma-Aldrich) as a substrate was used to estimate the amount of enzyme secreted upon degranulation. In brief, RBL-2H3 (ATCC # CRL 2256) cells were plated overnight in the presence of IgE (monoclonal anti-dinitrophenyl antibody from Sigma-Aldrich). The next day, cells were treated with compounds in cell culture media, washed and treated with DNP-BSA for 1 hour (Sigma-Aldrich) in Tyrodes's buffer to induce degranulation. The level of 3-hexosaminidase was analyzed in cell-free supernates and cell lysates and the amount of β-hexosaminidase released was calculated. EC50 values were generated using varying concentrations of inhibitors. […] Thus amino naphthyridinones can be used to inhibit immunologic functions such as degranulation.

For experiment [6], the target named is BTK (Homo sapiens (Human), UniProt Q06187).
Chain of BTK (Q06187 whole entry): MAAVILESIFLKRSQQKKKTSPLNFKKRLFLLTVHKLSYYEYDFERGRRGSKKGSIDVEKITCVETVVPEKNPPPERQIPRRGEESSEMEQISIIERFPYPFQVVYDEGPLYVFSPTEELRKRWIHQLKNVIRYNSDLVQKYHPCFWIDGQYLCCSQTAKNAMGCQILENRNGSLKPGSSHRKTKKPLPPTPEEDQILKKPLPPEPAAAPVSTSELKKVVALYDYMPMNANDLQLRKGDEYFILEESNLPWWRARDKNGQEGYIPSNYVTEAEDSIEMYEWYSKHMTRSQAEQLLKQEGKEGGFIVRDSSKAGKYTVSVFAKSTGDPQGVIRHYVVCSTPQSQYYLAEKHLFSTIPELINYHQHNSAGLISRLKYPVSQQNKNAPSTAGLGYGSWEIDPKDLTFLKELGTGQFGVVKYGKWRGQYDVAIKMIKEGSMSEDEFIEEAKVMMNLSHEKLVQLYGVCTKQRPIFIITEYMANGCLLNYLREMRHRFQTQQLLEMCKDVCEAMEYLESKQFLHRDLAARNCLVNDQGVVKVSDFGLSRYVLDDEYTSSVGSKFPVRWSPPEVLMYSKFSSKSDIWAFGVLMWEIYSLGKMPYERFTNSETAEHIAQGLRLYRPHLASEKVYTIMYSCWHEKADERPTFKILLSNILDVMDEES
For experiment [7], the system named is PLCγ2 phosphorylation in Ramos cells. The experiment in a line: PLCγ2 phosphorylation by flow cytometry. The settings on record: Homo sapiens, 0.3 uM, flow cytometry, anti-phospho PLCγ2 (Tyr759), read-out: pPLCγ % inhibition. Format: cell-based, human. An outline of the steps: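 Ramos cells starved 18 h in 1% FBS, pretreated with inhibitor 2 h, then stimulated with anti-IgM (10 ug/ml final) plus 3.3 mM H2O2 for 2 min, then cross-linking F(ab) (10 ug/ml) plus H2O2 for 8 min. Fixed, permeabilized cells stained with PE anti-phospho-PLCγ2 (Tyr1217 or Tyr759), dead cells gated out; ED50 from geometric mean fluorescence over four inhibitor concentrations.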

The target in experiment [8] is T2, Src (Homo sapiens (Human), UniProt P12931). The settings on record: read-out: Src IC50.
T2 sequence (P12931 whole entry, looked up): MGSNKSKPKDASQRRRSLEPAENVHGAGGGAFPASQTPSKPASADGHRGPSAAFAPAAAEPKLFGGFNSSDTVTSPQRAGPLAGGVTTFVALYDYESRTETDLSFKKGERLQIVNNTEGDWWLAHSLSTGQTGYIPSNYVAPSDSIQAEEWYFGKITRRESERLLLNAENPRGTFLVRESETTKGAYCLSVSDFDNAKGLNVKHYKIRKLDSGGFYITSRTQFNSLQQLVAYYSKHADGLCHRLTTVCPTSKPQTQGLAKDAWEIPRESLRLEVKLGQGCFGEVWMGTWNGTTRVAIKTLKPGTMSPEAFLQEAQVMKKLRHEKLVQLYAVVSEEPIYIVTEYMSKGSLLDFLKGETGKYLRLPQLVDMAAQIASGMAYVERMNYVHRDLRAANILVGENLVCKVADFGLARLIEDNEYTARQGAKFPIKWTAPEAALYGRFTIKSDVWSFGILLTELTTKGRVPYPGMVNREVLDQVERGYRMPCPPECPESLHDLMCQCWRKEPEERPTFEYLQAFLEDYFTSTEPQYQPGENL
The subject of experiment [9] is SuDHL6. The experiment can be described thus: Proliferation/viability assay. The settings on record: Table 10, B Lymphoma, read-out: Effect on Tumor Cell Growth EC50, SuDHL6. The format is cell-based.
Experiment [10] deals with PC3. The experiment in a line: Proliferation/viability assay. Format: cell-based. The settings on record: Table 10, Prostate Ca, read-out: Effect on Tumor Cell Growth EC50, PC3.
Experiment [11] deals with Ramos. Conditions: cited from earlier work.
For experiment [12], the system named is PC3. The experiment can be described thus: Apoptosis by flow cytometry (Annexin V / 7AAD). The format is cell-based. The settings on record: Table 5; positive control, concentration not given. A general note: Flow cytometry measures light scatter and fluorescence of single cells or particles in a stream.
Experiment [13] has as its system Ramos. The experiment can be described thus: Apoptosis by flow cytometry (Annexin V / 7AAD). Format: cell-based, human. The settings on record: Table 5; positive control, concentration not given.
The test system of experiment [14] is DoHH2. The experiment in a line: Apoptosis by flow cytometry (Annexin V / 7AAD). Format: cell-based, human. The settings on record: Table 5; positive control, concentration not given. From the text:
Activation of Tec family kinases including BTK, and/or Src kinase family members, regulates cell survival and cell death in normal B cells, lymphomas, and solid tumors. Apoptosis is a programmed cell death characterized by specific changes in cell morphology. […] Staurosporine was used as a positive control for apoptosis. […] Table 6 illustrates that several amino naphthyridinones induce significant apoptosis in DoHH2 cells.

In experiment [15] the test system is DoHH2. Conditions: cited from earlier work.
In experiment [16] the target is T1, Lyn. The experiment in a line: biochemical. The settings on record: Lyn IC50.
The target in experiment [17] is T2, Src. The experiment can be described thus: biochemical.
Where [18] appears, read: Homo sapiens, DOHH-2, 48 hrs, read-out: DoHH2 EC50.
[19] abbreviates: Homo sapiens, Ramos, 48 h, read-out: Ramos EC50.
Where [20] appears, read: Homo sapiens, Ramos, 48 hrs, read-out: Ramos EC50.

T1 sequence (P07948 whole entry): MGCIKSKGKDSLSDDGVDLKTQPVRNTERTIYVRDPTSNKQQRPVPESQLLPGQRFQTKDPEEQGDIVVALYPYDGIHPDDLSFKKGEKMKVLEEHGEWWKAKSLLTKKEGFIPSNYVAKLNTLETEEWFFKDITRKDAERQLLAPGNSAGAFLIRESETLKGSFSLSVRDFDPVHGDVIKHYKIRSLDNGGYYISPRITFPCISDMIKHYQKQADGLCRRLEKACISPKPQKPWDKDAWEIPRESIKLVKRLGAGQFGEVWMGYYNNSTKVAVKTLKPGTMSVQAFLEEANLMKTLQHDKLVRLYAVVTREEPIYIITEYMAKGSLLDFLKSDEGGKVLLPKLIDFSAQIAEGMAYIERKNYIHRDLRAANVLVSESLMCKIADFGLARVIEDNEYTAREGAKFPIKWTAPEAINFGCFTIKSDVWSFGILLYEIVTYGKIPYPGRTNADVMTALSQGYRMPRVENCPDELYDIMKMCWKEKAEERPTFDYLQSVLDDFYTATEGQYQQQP

The term pEC50 denotes the EC50 on a negative log10 scale, so that one unit is a factor of ten. The inhibition is the relative decrease from the control value, in per cent. The pIC50 is −log10 of the IC50, conventionally taken in molar units. Regarding `CC(C)n1c(=O)c(-c2c(F)cccc2F)cc2cnc(Nc3ccc(N(C)C4CCN(C)CC4)cn3)cc21` [Compound 137, 3-(2,6-difluorophenyl)-1-isopropyl-7-((5-(methyl(1-methylpiperidin-4-yl)amino)pyridin-2-yl)amino)-1,6-naphthyridin-2(1H)-one], the pEC50 in [1] (setting [18]) was over 6.00; in experiment [4] (setting [19]), 5.00 to 6.00; in [5] it was 5.94. The inhibition at 0.3 µM in experiment [2] was 81%; in experiment [7] it was 98%. In addition, the negative-log IC50 (pIC50) in experiment [3], in [6] (read-out: BTK IC50) and in experiment [8] was over 7.00 in each case.

With `CCn1c(=O)c(-c2c(O)cccc2F)cc2cnc(Nc3ccc(N(C)C4CCN(C)CC4)cn3)cc21` [Compound 120, 1-ethyl-3-(2-fluoro-6-hydroxyphenyl)-7-((5-(methyl(1-methylpiperidin-4-yl)amino)pyridin-2-yl)amino)-1,6-naphthyridin-2(1H)-one], the negative-log EC50 (pEC50) in [1] (setting [18]) is over 6.00; in experiment [4] (setting [20]), 5.00 to 6.00; in experiment [5], 5.65. Moreover, the inhibition at 0.3 µM in experiment [2] is 57%; in experiment [7] it was 87%. Further, the negative-log IC50 (pIC50) in [3], in experiment [6] (read-out: BTK IC50) and in [8] was over 7.00 throughout.

For `COCCn1c(=O)c(-c2c(F)cccc2F)cc2cnc(Nc3ccc(N(C)C4CCN(C)CC4)cn3)cc21` [Compound 129, 3-(2,6-difluorophenyl)-1-(2-methoxyethyl)-7-((5-(methyl(1-methylpiperidin-4-yl)amino)pyridin-2-yl)amino)-1,6-naphthyridin-2(1H)-one], the pEC50 in [1] (setting [18]) is over 6.00; in [4] (setting [20]), 5.00 to 6.00; in experiment [5] it was under 5.30. In addition, the figures for the inhibition at 0.3 µM in experiment [2] and in experiment [7] were 66% and 88%, respectively. For the same compound, the pIC50 in experiment [3], in experiment [6] (read-out: BTK IC50) and in [8] was over 7.00 throughout.

For `CCN(CC)CCOc1ccc(Nc2cc3c(cn2)cc(-c2c(Cl)cccc2Cl)c(=O)n3CC)nc1` [Compound 101, 3-(2,6-dichlorophenyl)-7-((5-(2-(diethylamino)ethoxy)pyridin-2-yl)amino)-1-ethyl-1,6-naphthyridin-2(1H)-one], the values for the negative logarithm of the EC50 (pEC50) in experiment [1] (setting [18]), in experiment [4] (setting [20]) and in experiment [5] were over 6.00, 5.00 to 6.00 and 6.02, respectively. Besides, the inhibition at 0.3 µM in [2] is 70%; in experiment [7] it was 92%. Also, the pIC50 in [3], in experiment [6] (read-out: BTK IC50) and in experiment [8] was over 7.00 throughout.

Turning to `CN1CCN(CCn2c(=O)c(-c3c(F)cccc3F)cc3cnc(Nc4ccc(F)cn4)cc32)CC1` [Compound 134, 3-(2,6-difluorophenyl)-7-((5-fluoropyridin-2-yl)amino)-1-(2-(4-methylpiperazin-1-yl)ethyl)-1,6-naphthyridin-2(1H)-one], the pEC50 in experiment [1] (setting [18]) is over 6.00; in [4] (setting [20]) it was 5.00 to 6.00; in experiment [5] it was 5.51. Also, the inhibition at 0.3 µM in experiment [2] stood at 44%; in [7] it was 80%. In addition, the negative logarithm of the IC50 (pIC50) in experiment [3], in experiment [6] (read-out: BTK IC50) and in experiment [8] was over 7.00 in each case.

As to `CN1CCN(CCOc2cc(OC3CCOCC3)c3c(Nc4c(Cl)ccc5c4OCO5)ncnc3c2)CC1` [AZN0530], the pEC50 in experiment [1] (Table 10, B Lymphoma, read-out: Effect on Tumor Cell Growth EC50, DOHH2) was 5.62; in experiment [9], 5.60; in experiment [4] (Table 10, B Lymphoma, read-out: Effect on Tumor Cell Growth EC50, Ramos), under 5.00; in experiment [10], under 5.00. In addition, in [11], the “Resistance of Ramos to known kinase inhibitors” value is given as “resistant”.

Turning to `CN[C@@H]1C[C@H]2O[C@@](C)([C@@H]1OC)n1c3ccccc3c3c4c(c5c6ccccc6n2c5c31)C(=O)NC4` [staurosporine, Staurosporine, reference compound], the “Percent Apoptosis PC3” value in [12] was determined as 47.16%. In experiment [13], the “Percent Apoptosis Ramos” value came out at 73.74%. For the same compound, the “Percent Apoptosis DOHH2” value in [14] is 95.86%.

Regarding `CC(C)n1c(=O)c(-c2c(F)cccc2F)cc2cnc(Nc3ccc(F)cn3)cc21` [Compound 78, 3-(2,6-difluorophenyl)-7-((5-fluoropyridin-2-yl)amino)-1-isopropyl-1,6-naphthyridin-2(1H)-one], the pEC50 in experiment [1] (setting [18]) was over 6.00; in experiment [4] (setting [20]), under 5.00; in experiment [5], under 5.30. The figures for the inhibition at 0.3 µM in experiment [2] and in [7] were 8% and 55%, respectively. This compound gave a negative logarithm of the IC50 (pIC50) in experiment [6] of 6.00 to 7.00.

As for `Cc1nc(Nc2ncc(C(=O)Nc3c(C)cccc3Cl)s2)cc(N2CCN(CCO)CC2)n1` [dasatinib], in experiment [15], the “Response of DoHH2 to known drugs” value is given as “responds”. The “Resistance of Ramos to known kinase inhibitors” value in experiment [11] is “resistant”.

For `CN1CC[C@H](n2c(=O)c(-c3c(F)cccc3F)cc3cnc(Nc4ccc(F)cn4)cc32)C1` [Compound 150, (S)-3-(2,6-difluorophenyl)-7-((5-fluoropyridin-2-yl)amino)-1-(1-methylpyrrolidin-3-yl)-1,6-naphthyridin-2(1H)-one], the figures for the pEC50 in [1] (setting [18]), in [4] (setting [19]) and in experiment [5] were 5.00 to 6.00, under 5.00 and under 5.30, respectively. In addition, the pIC50 in experiment [16] and in [17] was 6.00 to 7.00 in each case.

On to `CCn1c(=O)c(-c2c(F)cccc2F)cc2cnc(Nc3ccc(N(C)C4CCN(C)CC4)cn3)cc21` [Compound 95, 3-(2,6-difluorophenyl)-1-ethyl-7-((5-(methyl(1-methylpiperidin-4-yl)amino)pyridin-2-yl)amino)-1,6-naphthyridin-2(1H)-one], for which the pEC50 was over 6.00 in experiment [1] (setting [18]), 5.00 to 6.00 in experiment [4] (setting [19]) and 5.65 in [5]. Besides, the inhibition at 0.3 µM in [2] worked out at 56%; in experiment [7], 87%. In addition, the negative-log IC50 (pIC50) in experiment [3], in [6] (read-out: BTK IC50) and in experiment [8] was over 7.00 each time.

In the case of `Cc1ccc(NC(=O)c2ccc(CN3CC[C@H](N(C)C)C3)c(C(F)(F)F)c2)cc1Nc1nccc(-c2cncnc2)n1` [Inno-406], the pEC50 was 5.16 in [1] (Homo sapiens, DOHH-2, Table 10, B Lymphoma, read-out: Effect on Tumor Cell Growth EC50, DOHH2); 5.24 in [9] (Homo sapiens, SU-DHL-6); 5.14 in experiment [4] (Homo sapiens, Ramos, Table 10, B Lymphoma, read-out: Effect on Tumor Cell Growth EC50, Ramos); under 5.00 in [10] (Homo sapiens, PC-3). Further, the “Resistance of Ramos to known kinase inhibitors” value in experiment [11] is on record as “resistant”.

Consider `CCN(CC)CCOc1ccc(Nc2cc3c(cn2)cc(-c2ccc(F)cc2C)c(=O)n3CC)nc1` [Compound 99, 7-((5-(2-(diethylamino)ethoxy)pyridin-2-yl)amino)-1-ethyl-3-(4-fluoro-2-methylphenyl)-1,6-naphthyridin-2(1H)-one], for which the pEC50 is over 6.00 in experiment [1] (setting [18]), 5.00 to 6.00 in experiment [4] (setting [20]) and 5.52 in [5]. Further, the inhibition at 0.3 µM turned out to be 40% in experiment [2] and 83% in experiment [7]. The pIC50 in experiment [3], in experiment [6] (read-out: BTK IC50) and in experiment [8] was over 7.00 throughout.
